Reference: patent US20050054708A1, “Combinations of drugs for the treatment of neoplasms” (priority 2003, published 2005)
Where two headings read alike, the source gives them in different places.

Columns and labels:
A549 cells = experiment: Anti-proliferation assay (Alamar Blue metabolism); conditions: Homo sapiens;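 also: 384-well plates, 72–80 h exposure at 37 °C, Alamar Blue fluorescence (ex 530 nm) read 3.5–5 h after dye addition, inhibition relative to mean of vehicle-only wells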
Protocol: Human non-small cells lung carcinoma cells A549 (ATCC# CCL-185), were grown at 37±0.5° C. and 5% CO2 in DMEM supplemented with 10% FBS, 2 mM glutamine, 1% penicillin, and 1% streptomycin.
Stock solutions (1000×) of each compound were prepared in DMSO and stored at −20° C. Master stock plates of 2-fold or 4-fold serial dilutions of individual compounds were prepared in 384-well plates. Combination matrices of test compounds were generated from these master stock plates by dilution into growth media described above. […] The combination matrices were used immediately and discarded.
The anti-proliferation assays were performed in 384-well plates. 6.6 μL of 10× stock solutions from the combination matrices were added to 40 μL of culture media in assay wells. The tumor cells were liberated from the culture flask using a solution of 0.25% trypsin. Cells were diluted in culture media such that 3000 or 6000 cells were delivered in 20 μL of media into each assay well. Assay plates were incubated for 72-80 hours at 37° C. ±0.5° C. with 5% CO2. Twenty microliters of 20% Alamar Blue warmed to 37° C. ±0.5° C. was added to each assay well following the incubation period. Alamar Blue metabolism was quantified by the amount of fluorescence intensity 3.5-5.0 hours after addition. Quantification, using an LJL Analyst AD reader (LJL Biosystems), was taken in the middle of the well with high attenuation, a 100 msec read time, an excitation filter at 530 nm, and an emission filter at 575 nm. For some experiments, quantification was performed using a Wallac Victor^2 reader. Measurements were taken at the top of the well with stabilized energy lamp control; a 100 msec read time, an excitation filter at 530 nm, and an emission filter at 590 nm.
The percent inhibition (% I) for each well was calculated using the following formula: % I=[(avg. untreated wells−treated well)/(avg. untreated wells)]×100 The average untreated well value (avg. untreated wells) is the arithmetic mean of 40 wells from the same assay plate treated with vehicle alone.
Inhibition of proliferation was measured by anti-proliferation assay as described below after incubation with the test compound(s) for 72 hours.

endo-exonuclease = conditions: PCT Publication No. WO 01/35935; cited from earlier work
[1] = target: T1, protein tyrosine phosphatase 1B (PTP1 B) (Homo sapiens, UniProt P18031); conditions: cited from earlier work
T1 sequence (P18031 1-435): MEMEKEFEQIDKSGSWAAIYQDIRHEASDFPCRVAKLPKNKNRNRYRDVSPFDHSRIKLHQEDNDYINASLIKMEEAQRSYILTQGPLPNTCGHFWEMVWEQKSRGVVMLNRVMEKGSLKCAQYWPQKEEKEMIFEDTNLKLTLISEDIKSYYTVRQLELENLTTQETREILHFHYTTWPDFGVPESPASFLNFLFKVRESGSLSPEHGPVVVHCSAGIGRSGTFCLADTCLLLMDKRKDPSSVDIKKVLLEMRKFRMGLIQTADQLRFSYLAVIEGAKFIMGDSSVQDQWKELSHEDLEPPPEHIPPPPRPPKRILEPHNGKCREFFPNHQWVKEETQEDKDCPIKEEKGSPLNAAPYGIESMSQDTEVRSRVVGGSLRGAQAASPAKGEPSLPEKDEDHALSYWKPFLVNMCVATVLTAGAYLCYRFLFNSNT

[2] = mice, single intraperitoneal injection at 10 mg/kg; cited from earlier work
[3] = test system: phosphatases of regenerating liver (PRL-1, PRL-2, or PRL-3); conditions: cited from earlier work

N=C(N)c1ccc(OCCCCCOc2ccc(C(=N)N)cc2)cc1 [Pentamidine, pentamidine] showed an inhibition at 0.013 µM (A549 cells; A549, read-out: Percent inhibition of Alamar Blue Metabolism, pentamidine 0.013 μM alone (Table 3)) of -28.2%, an inhibition at 0.013 µM (A549 cells; A549, read-out: Percent inhibition of Alamar Blue Metabolism, pentamidine 0.013 μM alone (Table 4)) of 8.4% and an inhibition at 0.013 µM (A549 cells; A549, read-out: Percent inhibition of Alamar Blue Metabolism, pentamidine 0.013 μM alone (Table 5)) of 30.2%. The inhibition at 0.013 µM (A549 cells; A549, read-out: Percent inhibition of Alamar Blue Metabolism, pentamidine 0.013 μM alone (Table 6)) was -6.7%, the inhibition at 0.013 µM (A549 cells; A549, read-out: Percent inhibition of Alamar Blue Metabolism, pentamidine 0.013 μM alone (Table 7)) was -4.4% and the inhibition at 0.026 µM (A549 cells; A549, read-out: Percent inhibition of Alamar Blue Metabolism, pentamidine 0.026 μM alone (Table 3)) was -25.3%. For the same molecule, the inhibition at 0.026 µM (A549 cells; A549, read-out: Percent inhibition of Alamar Blue Metabolism, pentamidine 0.026 μM alone (Table 4)) was -6.8%, the inhibition at 0.026 µM (A549 cells; A549, read-out: Percent inhibition of Alamar Blue Metabolism, pentamidine 0.026 μM alone (Table 5)) was 28.4% and the inhibition at 0.026 µM (A549 cells; A549, read-out: Percent inhibition of Alamar Blue Metabolism, pentamidine 0.026 μM alone (Table 6)) was 13.1%. It also gave an inhibition at 0.026 µM (A549 cells; A549, read-out: Percent inhibition of Alamar Blue Metabolism, pentamidine 0.026 μM alone (Table 7)) of -3%, an inhibition at 0.05 µM (A549 cells; A549, read-out: Percent inhibition of Alamar Blue Metabolism, pentamidine 0.050 μM alone (Table 8)) of 2.4% and an inhibition at 0.053 µM (A549 cells; A549, read-out: Percent inhibition of Alamar Blue Metabolism, pentamidine 0.053 μM alone (Table 3)) of -12.4%. For the same molecule, the inhibition at 0.053 µM (A549 cells; A549, read-out: Percent inhibition of Alamar Blue Metabolism, pentamidine 0.053 μM alone (Table 4)) was -8.8%, the inhibition at 0.053 µM (A549 cells; A549, read-out: Percent inhibition of Alamar Blue Metabolism, pentamidine 0.053 μM alone (Table 5)) was 30.4% and the inhibition at 0.053 µM (A549 cells; A549, read-out: Percent inhibition of Alamar Blue Metabolism, pentamidine 0.053 μM alone (Table 6)) was 1.1%. For the same molecule, the inhibition at 0.053 µM (A549 cells; A549, read-out: Percent inhibition of Alamar Blue Metabolism, pentamidine 0.053 μM alone (Table 7)) was -1.9%, the inhibition at 0.1 µM (A549 cells; A549, read-out: Percent inhibition of Alamar Blue Metabolism, pentamidine 0.100 μM alone (Table 8)) was -3.1% and the inhibition at 0.105 µM (A549 cells; A549, read-out: Percent inhibition of Alamar Blue Metabolism, pentamidine 0.105 μM alone (Table 3)) was 4.7%. The inhibition at 0.105 µM (A549 cells; A549, read-out: Percent inhibition of Alamar Blue Metabolism, pentamidine 0.105 μM alone (Table 4)) was -3.7%, the inhibition at 0.105 µM (A549 cells; A549, read-out: Percent inhibition of Alamar Blue Metabolism, pentamidine 0.105 μM alone (Table 5)) was 33.7% and the inhibition at 0.105 µM (A549 cells; A549, read-out: Percent inhibition of Alamar Blue Metabolism, pentamidine 0.105 μM alone (Table 6)) was -3.7%. It also gave an inhibition at 0.105 µM (A549 cells; A549, read-out: Percent inhibition of Alamar Blue Metabolism, pentamidine 0.105 μM alone (Table 7)) of 9.2%, an inhibition at 0.2 µM (A549 cells; A549, read-out: Percent inhibition of Alamar Blue Metabolism, pentamidine 0.200 μM alone (Table 8)) of -0.7% and an inhibition at 0.35 µM (A549 cells; A549, read-out: Percent inhibition of Alamar Blue Metabolism, pentamidine 0.350 μM alone (Table 8)) of -1.5%. It also gave an inhibition at 0.421 µM (A549 cells; A549, read-out: Percent inhibition of Alamar Blue Metabolism, pentamidine 0.421 μM alone (Table 4)) of 50%, an inhibition at 0.421 µM (A549 cells; A549, read-out: Percent inhibition of Alamar Blue Metabolism, pentamidine 0.421 μM alone (Table 6)) of 32.6% and an inhibition at 0.421 µM (A549 cells; A549, read-out: Percent inhibition of Alamar Blue Metabolism, pentamidine 0.421 μM alone (Table 7)) of 10.5%. For the same molecule, the inhibition at 0.422 µM (A549 cells; A549, read-out: Percent inhibition of Alamar Blue Metabolism, pentamidine 0.422 μM alone (Table 3)) was 52.1%, the inhibition at 0.422 µM (A549 cells; A549, read-out: Percent inhibition of Alamar Blue Metabolism, pentamidine 0.422 μM alone (Table 5)) was 68.2% and the inhibition at 0.5 µM (A549 cells; A549, read-out: Percent inhibition of Alamar Blue Metabolism, pentamidine 0.500 μM alone (Table 8)) was 15.8%. The inhibition at 0.7 µM (A549 cells; A549, read-out: Percent inhibition of Alamar Blue Metabolism, pentamidine 0.700 μM alone (Table 8)) was 21.7%, the inhibition at 1 µM (A549 cells; A549, read-out: Percent inhibition of Alamar Blue Metabolism, pentamidine 1.000 μM alone (Table 8)) was 48.9% and the inhibition at 1.3 µM (A549 cells; A549, read-out: Percent inhibition of Alamar Blue Metabolism, pentamidine 1.300 μM alone (Table 8)) was 64.7%. For the same molecule, the inhibition at 1.685 µM (A549 cells; A549, read-out: Percent inhibition of Alamar Blue Metabolism, pentamidine 1.685 μM alone (Table 4)) was 79.1%, the inhibition at 1.685 µM (A549 cells; A549, read-out: Percent inhibition of Alamar Blue Metabolism, pentamidine 1.685 μM alone (Table 6)) was 71.9% and the inhibition at 1.685 µM (A549 cells; A549, read-out: Percent inhibition of Alamar Blue Metabolism, pentamidine 1.685 μM alone (Table 7)) was 62.9%. The inhibition at 1.687 µM (A549 cells; A549, read-out: Percent inhibition of Alamar Blue Metabolism, pentamidine 1.687 μM alone (Table 3)) was 78.2%, the inhibition at 1.687 µM (A549 cells; A549, read-out: Percent inhibition of Alamar Blue Metabolism, pentamidine 1.687 μM alone (Table 5)) was 83.1% and the inhibition at 1.7 µM (A549 cells; A549, read-out: Percent inhibition of Alamar Blue Metabolism, pentamidine 1.700 μM alone (Table 8)) was 70.1%. The inhibition at 3.37 µM (A549 cells; A549, read-out: Percent inhibition of Alamar Blue Metabolism, pentamidine 3.370 μM alone (Table 4)) was 79.4%, the inhibition at 3.37 µM (A549 cells; A549, read-out: Percent inhibition of Alamar Blue Metabolism, pentamidine 3.370 μM alone (Table 6)) was 80.6% and the inhibition at 3.37 µM (A549 cells; A549, read-out: Percent inhibition of Alamar Blue Metabolism, pentamidine 3.370 μM alone (Table 7)) was 73.7%. The inhibition at 3.374 µM (A549 cells; A549, read-out: Percent inhibition of Alamar Blue Metabolism, pentamidine 3.374 μM alone (Table 3)) was 85.4%, the inhibition at 3.374 µM (A549 cells; A549, read-out: Percent inhibition of Alamar Blue Metabolism, pentamidine 3.374 μM alone (Table 5)) was 87.5% and the “inhibition of endo-exonuclease activity” value (endo-exonuclease) was “inhibit the activity of endo-exonuclease”. For the same molecule, the “inhibition of protein tyrosine phosphatase 1B” value [1] was “effective inhibitor”, the tissue distribution [2] was “The concentration in the kidneys was the highest, followed by that in the liver” and the “inhibition of phosphatases of regenerating liver” value [3] was “potent inhibitor”.
